This passage reports EC50 and CC50 results from US20220242879A1, “FUSED HETEROCYCLE DERIVATIVES” (Janssen Sciences Ireland Unlimited Company, priority 2019, published 2022).

A word on the pEC50: it is −log10 of the EC50, conventionally taken in molar units. As a reminder, the CC50 is the concentration that lowers cell viability or growth by half.

pEC50: −log10 of the molar value. Read-outs that look alike come from different tables or passages of the source.

One data set relates to HBV. Description: Anti-HBV activity, HepG2.117 cell line, intracellular HBV DNA by real-time PCR. Type of data set: cell-based, Hepatitis B virus. The conditions noted are these: Hepatitis B virus, read-out: HBV-AVE-HepG2.117 EC50. As to the method:
The anti HBV activity was measured using the HepG2.117 cell line, a stable, inducibly HBV producing cell line, which replicates HBV in the absence of doxicycline (Tet-off system). The HepG2 cell line is available from ATCC® under number HB-8065. Transfection of the HepG2 cell line can be as described in Sun and Nassal 2006 Journal of Hepatology 45 (2006) 636-645 “Stable HepG2- and Huh7-based human hepatoma cell lines for efficient regulated expression of infectious hepatitis B virus”.
For the antiviral assay, HBV replication was induced, followed by a treatment with serially diluted compound in 96-well plates. After 3 days of treatment, the antiviral activity was determined by, quantification of intracellular HBV DNA using real-time PCR and an HBV specific primer set and probe.
(In general: Quantitative PCR measures a nucleic acid by following its amplification.)

Data set [1] is described as follows: Cytotoxicity, ATPlite Luminescence Assay. Type of data set: cell-based, human. The conditions noted are these: human, mean value, cells incubated for 3 days, viability by ATPlite, read-out: TOX-HepC2.117 CC50. The procedure: Cytotoxicity of the compounds was tested using HepG2 or HepG2.117 cells, incubated for 3 days in the presence of compounds. The viability of the cells was assessed using the PERKIN ELMER ATPlite Luminescence Assay System.”
For orientation: In ATP-based viability assays light output follows the ATP content of the culture.

Setting [2] is: 72 h, mean value, HepG2.117 cells, 3 days of treatment, intracellular HBV DNA.

For `O=C(c1ccc(Cl)c(Cl)c1)N1CCc2nn3c(c2C1)-c1nocc1CCC3` [Compound 11], in the data set with HBV (setting [2]), the pEC50 was 6.52. The cytotoxic concentration (CC50) at 3 days in data set [1] (HepG2.117 cells) is over 46200 nM.
`O=C(c1ccc(Cl)c(Cl)c1)N1CCc2nn3c(c2C1)-c1n[nH]cc1CC(CO)C3` (centres unmarked) [Compound 43, (3,4-Dichlorophenyl)[5-(hydroxymethyl)-2,5,6,9,10,12-hexahydropyrazolo[3,4-c]pyrido-[4′,3′:3,4]pyrazolo[1,5-a]azepin-11(41)-yl]methanone]: in the data set on HBV (setting [2]), the negative-log EC50 (pEC50) was 5.63. Further, the 50% cytotoxic concentration (CC50) at 3 days in data set [1] (HepG2.117 cells) is over 50000 nM.
On the same counts, the results for `O=C(c1ccc(Cl)c(Cl)c1)N1CCc2nn3c(c2C1)-c1noc(C(F)(F)F)c1CCC3` [Compound 16, (3,4-Dichlorophenyl)[3-(trifluoromethyl)-5,6,9,10-tetrahydro-4H-[1,2]oxazolo[3,4-c]pyrido[4′,3′:3,4]pyrazolo[1,5-a]azepin-11(12H)-yl]methanone] are 5.79 and over 50000 nM.
As for `Cc1[nH]nc2c1CCn1nc3c(c1-2)CN(C(=O)c1ccc(Cl)c(Cl)c1)CC3` [Compound 7, (3,4-Dichlorophenyl)(3-methyl-2,4,5,8,9,11-hexahydro-10H-pyrazolo[3,4-c]pyrazolo-[1,5-a:4,3-c′]dipyridin-10-yl)methanone], the negative logarithm of the EC50 (pEC50) in the data set on HBV (setting [2]) is 5.89. Besides, in data set [1] (HepG2.117 cells), the CC50 at 3 days is over 50000 nM.
On the same counts, the results for `CNC(=O)[C@@H]1Cc2conc2-c2c3c(nn2C1)CCN(C(=O)c1ccc(Cl)c(Cl)c1)C3` (single isomer, unassigned) [Compound 30, (5′R)-11-(3,4-Dichlorobenzoyl)-N-methyl-5,6,9,10,11,12-hexahydro-4H-[1,2]oxazolo[3,4-c]-pyrido[4′,3′:3,4]pyrazolo[1,5-a]azepine-5-carboxamide] are 6.74 and over 50000 nM.
Regarding `C=C1Cc2c(noc2N(C)C)-c2c3c(nn2C1)CCN(C(=O)c1ccc(Cl)c(Cl)c1)C3` [Compound 26, (3,4-Dichlorophenyl)[3-(dimethylamino)-5-methylidene-5,6,9,10-tetrahydro-4H-[1,2]oxazolo-[3,4-c]pyrido[4′,3′:3,4]pyrazolo[1,5-a]azepin-11(12H)-yl]methanone], the pEC50 in the data set on HBV (setting [2]) is 5.94. Moreover, in data set [1] (HepG2.117 cells), the cytotoxic concentration (CC50) at 3 days was over 50000 nM.
Take `Cc1onc2c1CCn1nc3c(c1-2)CN(C(=O)c1ccc(Cl)c(Cl)c1)CC3` [Compound 2]: in the data set on HBV (setting [2]), the pEC50 was 6.04. In addition, the cytotoxic concentration (CC50) at 3 days in data set [1] (HepG2.117 cells) was found to be 41900 nM.
For `CCNC(=O)C1Cc2conc2-c2c3c(nn2C1)CCN(C(=O)c1ccc(Cl)c(Cl)c1)C3` (centres unmarked) [Compound 32, 11-(3,4-Dichlorobenzoyl)-N-ethyl-5,6,9,10,11,12-hexahydro-4H-[1,2]oxazolo[3,4-c]pyrido-[4′,3′:3,4]pyrazolo[1,5-a]azepine-5-carboxamide], in the data set with HBV (setting [2]), the pEC50 is 7.05. In addition, in data set [1] (HepG2.117 cells), the CC50 at 3 days is over 50000 nM.
Turning to `O=C(c1ccc(Cl)c(Cl)c1)N1CCc2nn3c(c2C1)-c1ncsc1CCC3` [Compound 46, (3,4-Dichlorophenyl)(4,5,6,9,10,12-hexahydro-11H-pyrido[4′,3′:3,4]pyrazolo[1,5-a][1,3]-thiazolo[4,5-c]azepin-11-yl)methanone], in the data set with HBV (setting [2]), the pEC50 was 6.63. The CC50 at 3 days in data set [1] (HepG2.117 cells) is 27100 nM.
Turning to `Cn1cc2c(n1)-c1c3c(nn1CCC2)CCN(C(=O)c1ccc(Cl)c(Cl)c1)C3` [Compound 42, (3,4-Dichlorophenyl)(2-methyl-2,5,6,9,10,12-hexahydropyrazolo[3,4-c]pyrido[4′,3′:3,4]-pyrazolo[1,5-a]azepin-11(4H)-yl)methanone], the pEC50 in the data set with HBV (setting [2]) is under 4.31. Also, the CC50 at 3 days in data set [1] (HepG2.117 cells) is over 50000 nM.
With `O=C(NCCO)C1Cc2conc2-c2c3c(nn2C1)CCN(C(=O)c1ccc(Cl)c(Cl)c1)C3` (centres unmarked) [Compound 34, 11-(3,4-Dichlorobenzoyl)-N-(2-hydroxyethyl)-5,6,9,10,11,12-hexahydro-4H-[1,2]oxazolo-[3,4-c]pyrido[4′,3′:3,4]pyrazolo[1,5-a]azepine-5-carboxamide], in the data set on HBV (setting [2]), the pEC50 is 6.45. In data set [1] (HepG2.117 cells), the CC50 at 3 days was over 50000 nM.
For the compound `O=C(c1ccc(Cl)c(Cl)c1)N1CCc2nn3c(c2C1)-c1nc[nH]c1CCC3` [Compound 44, (3,4-Dichlorophenyl)(4,5,6,9,10,12-hexahydroimidazo[4,5-c]pyrido[4′,3′:3,4]pyrazolo[1,5-a]azepin-11(3H)-yl)methanone], the pEC50 in the data set on HBV (setting [2]) was 6.24. In data set [1] (HepG2.117 cells), the cytotoxic concentration (CC50) at 3 days is over 50000 nM.
Consider `COC1Cc2conc2-c2c3c(nn2C1)CCN(C(=O)c1ccc(Cl)c(Cl)c1)C3` (centres unmarked) [Compound 20, (3,4-Dichlorophenyl)(5-methoxy-5,6,9,10-tetrahydro-4H-isoxazolo[3,4-c]pyrido[4′,3′:3,4]-pyrazolo[1,5-a]azepin-11(12H)-yl)methanone], for which the pEC50 with HBV (setting [2]) was 6.52. Further, the cytotoxic concentration (CC50) at 3 days in data set [1] (HepG2.117 cells) was over 50000 nM.
With `C=C1Cc2conc2-c2c3c(nn2C1)CCN(C(=O)c1ccc(Cl)c(Cl)c1)C3` [Compound 17, (3,4-Dichlorophenyl)(5-methylidene-5,6,9,10-tetrahydro-4H-[1.2]oxazolo[3,4-c]pyrido-[4′,3′:3,4]pyrazolo[1,5-a]azepin-11(12H)-yl)methanone], the negative logarithm of the EC50 (pEC50) in the data set on HBV (setting [2]) is 6.61. The CC50 at 3 days in data set [1] (HepG2.117 cells) came to 24700 nM.
As for `O=C(c1cnc(Cl)c(Cl)c1)N1CCc2nn3c(c2C1)-c1nocc1CC(O)C3` (centres unmarked) [Compound 53], the negative logarithm of the EC50 (pEC50) in the data set on HBV (setting [2]) was under 5.00. Besides, the CC50 at 3 days in data set [1] (HepG2.117 cells) is over 50000 nM.
In the same order, the values of `C=C1Cc2c(noc2N)-c2c3c(nn2C1)CCN(C(=O)c1ccc(Cl)c(Cl)c1)C3` [Compound 23, (3-Amino-5-methylidene-5,6,9,10-tetrahydro-4H-[1,2]oxazolo[3,4-c]pyrido[4′,3′:3,4]pyrazolo-[1,5-a]azepin-11(12H)-yl)(3,4-dichlorophenyl)methanone] are 6.76 and 21200 nM.
Regarding `O=C(c1ccc(Cl)c(Cl)c1)N1CCc2nn3c(c2C1)-c1n[nH]cc1CCC3` [Compound 41, (3,4-Dichlorophenyl)(2,5,6,9,10,12-hexahydropyrazolo[3,4-c]pyrido[4′,3′,3,4]pyrazolo[1,5-a]-azepin-11(4H)-yl)methanone], in the data set on HBV (setting [2]), the pEC50 was 6.13. The 50% cytotoxic concentration (CC50) at 3 days in data set [1] (HepG2.117 cells) was 25600 nM.
In the same order, the values of `CCc1onc2c1CCCn1nc3c(c1-2)CN(C(=O)c1ccc(Cl)c(Cl)c1)CC3` [Compound 13, (3,4-Dichlorophenyl)(3-ethyl-5,6,9,10-tetrahydro-4H-[1,2]oxazolo[3,4-c]-pyrido[4′,3′:3,4]pyrazolo[1,5-a]azepin-11(12H)-yl)methanone] are 5.53 and 26600 nM.
Consider `CCc1onc2c1CCn1nc3c(c1-2)CN(C(=O)c1ccc(Cl)c(Cl)c1)CC3` [Compound 3, (3,4-dichlorophenyl)(3-ethyl-4,5,8,9-tetrahydro[1,2]oxazolo[3,4-c]pyrazolo[1,5-a:4,3-c′]dipyridin-10(11H)-yl)methanone], for which the negative-log EC50 (pEC50) in the data set on HBV (setting [2]) is 5.84. Moreover, the CC50 at 3 days in data set [1] (HepG2.117 cells) was determined as 47000 nM.
As to `O=C(c1ccc(Cl)c(Cl)c1)N1CCc2nn3c(c2C1)-c1noc(-c2ccccc2)c1CC3` [Compound 4, (3,4-Dichlorophenyl)(3-phenyl-4,5,8,9-tetrahydro[1,2]oxazolo[3,4-c]pyrazolo-[1,5-a:4,3-c′]dipyridin-10(11H)-yl)methanone], the pEC50 in the data set with HBV (setting [2]) is under 5.00. In addition, the CC50 at 3 days in data set [1] (HepG2.117 cells) was over 10000 nM.
With `O=C(Nc1ccccc1)C1Cc2conc2-c2c3c(nn2C1)CCN(C(=O)c1ccc(Cl)c(Cl)c1)C3` (centres unmarked) [Compound 37, 11-(3,4-Dichlorobenzoyl)-N-phenyl-5,6,9,10,11,12-hexahydro-4H-[1,2]oxazolo[3,4-c]-pyrido[4′,3′:3,4]pyrazolo[1,5-a]azepine-5-carboxamide], the negative logarithm of the EC50 (pEC50) in the data set with HBV (HepG2.117, 72 h) is 6.46. In data set [1], the half-maximal cytotoxic concentration (CC50) at 3 days is over 50000 nM.
As for `O=C(c1ccc(Cl)c(Cl)c1)N1CCc2nn3c(c2C1)-c1n[nH]cc1CC3` [Compound 6, (3,4-Dichlorophenyl)(2,4,5,8,9,11-hexahydro-10H-pyrazolo[3,4-c]pyrazolo[1,5-a:4,3-c′]-dipyridin-10-yl)methanone], the negative-log EC50 (pEC50) in the data set with HBV (setting [2]) was 6.68. Further, the cytotoxic concentration (CC50) at 3 days in data set [1] (HepG2.117 cells) is over 50000 nM.
In the case of `Nc1onc2c1CC(O)(CO)Cn1nc3c(c1-2)CN(C(=O)c1ccc(Cl)c(Cl)c1)CC3` (centres unmarked) [Compound 24, [3-Amino-5-hydroxy-5-(hydroxymethyl)-5,6,9,10-tetrahydro-4H-[1,2]oxazolo[3,4-c]pyrido-[4′,3′:3,4]pyrazolo[1,5-a]azepin-11(12H)-yl](3,4-dichlorophenyl)methanone], the negative-log EC50 (pEC50) in the data set with HBV (setting [2]) was 5.80. Also, the CC50 at 3 days in data set [1] (HepG2.117 cells) is over 50000 nM.
Take `O=C(c1ccc(Cl)c(Cl)c1)N1CCc2nn3c(c2C1)-c1nocc1CC(CO)C3` (centres unmarked) [Compound 27]: the pEC50 in the data set on HBV (setting [2]) is 6.41. The 50% cytotoxic concentration (CC50) at 3 days in data set [1] (HepG2.117 cells) is over 50000 nM.
In the same order, the values of `O=C(c1ccc(Cl)c(Cl)c1)N1CCc2nn3c(c2C1)-c1nocc1CC(C(=O)N1CCOCC1)C3` (centres unmarked) [Compound 38, [1-(3,4-Dichlorobenzoyl)-5,6,9,10,11,12-hexahydro-4H-[1,2]oxazolo[3,4-c]pyrido[4′,3′:3,4]-pyrazolo[1,5-a]azepin-5-yl](morpholin-4-yl)methanone] are 5.84 and over 50000 nM.
